Read-outs that look alike come from different tables or passages of the source.
How the values were obtained:
aqueous solubility = type: physicochemical
Procedure: Solubility: Information on the actual quantitative solubility of solid Molybdenum disulfide can be sparse, and the compound can be often quoted as being insoluble in water. […] Thus, upon prolonged contact between MoS2 coated surface with an aqueous medium, a saturation concentration of 0.125-1.25 μM MoO4^2− can reasonably be expected.

[1] = cited from earlier work
[2] = solubility of ATTM in solvents; type: physicochemical
Source text: Preparation of Exemplary Coating Formulations: (NH4)2MoS4 (“ATTM” or ammoniumtetrathiomolybdate) as a representative compound for a pharmaceutically active copper chelating agent can be dissolved in a suitable solvent including, without limitation dimethyl acetamide, dimethylsulfoxide or tetramethylurea to provide a desired saturation concentration. […] The concentrated ATTM solution can be mixed with a variety of suitable matrix polymers commonly known to one of ordinary skill in the art, including, without limitation PVDF-HVP, PET, PLGA, PLLA, PHA, polyurethanes, polyphosphazenes, silicones and equivalents, in a suitable volume ratio to form a readily available coating formulation with a defined polymer to ATTM weight ratio per ml coating formulation. The matrix polymer solvent can be chosen to be mutually compatible with the ATTM solvent in order to avoid potential phase separation. The obtained deep red to orange solution can be centrifuged, and the supernatant filtered through a 0.22 μm PTFE filter to remove any solid residue. The finally obtained ATTM concentration can be determined via UV-Vis spectroscopy.

[3] = system: venous endothelial cell proliferation; conditions: cited from earlier work
IL-1α = conditions: cited from earlier work

Row | SMILES | saturation concentration of MoO4^2− (aqueous solubility; prolonged contact of MoS2 coated surface with aqueous medium, expected) | predicted maximum aqueous saturation concentration of the molybdate species (TM0) (aqueous solubility; stemming from MoS2) | aqueous solubility ([1]; aqueous environments) | solubility in acetone, acetonitrile, cyclohexanone, methylisobutylketone [2] | solubility in dimethylacetamide, tetramethylurea, dimethylsulfoxide, N-methylpyrrolidone, ethylendiamine, pyridine, methanol, ethanediol and water [2] | aqueous solubility ([1]; reported) | systemic concentration sufficient to achieve inhibition of venous endothelial cell proliferation [3] | concentration inhibiting the release of IL-1α (IL-1α)
1 | [S]=[Mo]=[S] [MoS2, Molybdenum disulfide] | 0.125 to 1.25 µM | 1.25 µM | 0.125 to 1.25 µM |  |  |  |  | 
2 | [NH4+].[NH4+].[SH-].[SH-].[S]=[Mo]=[S] [ATTM, Ammoniumtetrathiomolybdate; (NH4)2MoS4] |  |  |  | limited solubility | reasonable solubility | at least 7 mM | 5 µM | 250 nM

— patent US12458599B2, “Bioactivatable devices and related methods” (CTI Vascular AG, priority 2020, dated 2025)
